Activity calls are given as the source filed them.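 The calls were made as follows: active = compounds cutting HIV-1 replication by at least half at any tested dose; inactive = the rest.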
System: MAGI-CCR5 cells, HIV-1 BaL, beta-gal luminescence, 48 h
Test: R5 HIV-1 replication inhibitors in MAGI cells, MAGI-CCR5 cells, beta-gal luminescence, 2% serum, set 3 (AID 504352)

| IC50 | SMILES |
| --- | --- |
| > 100 µM (inactive) | Nc1sc2ccccc2[n+]1Cc1ccc(C(=O)O)cc1 |
| 24.3 µM | CCOc1ccc(-n2cccc2/C=C2/C(=N)N3C(=NC2=O)SN=C3S(C)(=O)=O)cc1 |
| 36.2 µM | CCc1ccc(-n2cccc2/C=C2/C(=N)N3C(=NC2=O)SN=C3S(C)(=O)=O)cc1 |
| 41.7 µM | CS(=O)(=O)C1=NSC2=NC(=O)/C(=C\c3cccn3-c3ccc(Cl)cc3)C(=N)N21 |
| 2.83 µM | Cc1c2c(=O)n(-c3nc4ccccc4s3)nc-2cc(O)n1CCc1ccc(O)cc1 |
| 1.9 µM | COc1ccccc1Cn1c(O)cc2nn(-c3nc4ccccc4s3)c(=O)c-2c1C |
| 35.1 µM | Cc1ccc(-n2cccc2/C=C2/C(=N)N3C(=NC2=O)SN=C3S(C)(=O)=O)cc1 |
| 3.98 µM | Cc1c2c(=O)n(-c3nc4ccccc4s3)nc-2cc(O)n1CCc1cccs1 |
| 33.6 µM | CCOC(=O)C1=C(C)N=c2s/c(=C\c3ccc(OCC(=O)O)cc3)c(=O)n2C1c1ccc(OC)c(OCC)c1 (stereo not drawn) |
| 33.7 µM | CS(=O)(=O)C1=NSC2=NC(=O)/C(=C\c3cccn3-c3cc(Cl)cc(Cl)c3)C(=N)N21 |
| 32.4 µM | O=C(O)CCCN1C(=O)/C(=C/c2ccc(-c3cccc(C(F)(F)F)c3)o2)SC1=S |
| 43.5 µM | CS(=O)(=O)C1=NSC2=NC(=O)/C(=C\c3cccn3-c3ccc(Br)cc3)C(=N)N21 |
| 4.4 µM | Cc1c2c(=O)n(-c3nc4ccccc4s3)nc-2cc(O)n1Cc1ccncc1 |
| 15.2 µM | O=C(O)CCCN1C(=O)/C(=C\c2ccc(-c3cccc(Cl)c3)o2)SC1=S |
| 2.16 µM | Cc1c2c(=O)n(-c3nc4ccccc4s3)nc-2cc(O)n1CCC(C)C |
| 36.1 µM | Cc1ccc(-n2cccc2/C=C2/C(=N)N3C(=NC2=O)SN=C3S(C)(=O)=O)cc1C |
| 10.9 µM | Cc1ccc(-c2ccc(/C=C3\SC(=S)N(CCCC(=O)O)C3=O)o2)cc1 |
| 43.6 µM | CCOC(=O)C1=C(C)N=c2sc(=Cc3ccc(OCC(=O)O)cc3)c(=O)n2C1c1ccccc1 (stereo not drawn) |
| 35.1 µM | CS(=O)(=O)C1=NSC2=NC(=O)/C(=C\c3cccn3-c3ccc(F)cc3)C(=N)N21 |
| 1.95 µM | Cc1c2c(=O)n(-c3nc4ccccc4s3)nc-2cc(O)n1Cc1cccnc1 |
| 3.68 µM | Cc1c2c(=O)n(-c3nc4ccccc4s3)nc-2cc(O)n1Cc1ccccc1Cl |
| 42.1 µM | CS(=O)(=O)C1=NSC2=NC(=O)/C(=C\c3cccn3-c3ccc(Cl)c(Cl)c3)C(=N)N21 |
| 3.71 µM | O=C(O)c1ccc([C@@H]2Nc3ccc(S(=O)(=O)Nc4cccc5ccccc45)cc3[C@@H]3C=CC[C@@H]32)cc1 |
| > 100 µM (inactive) | O=C(O)CCCN1C(=O)/C(=C\c2ccc(-c3ccc(Br)cc3)o2)SC1=S |
| 47.3 µM | CS(=O)(=O)C1=NSC2=NC(=O)/C(=C\c3cccn3-c3cccc(C(F)(F)F)c3)C(=N)N21 |
| 7.55 µM | O=C(O)CCCN1C(=O)/C(=C/c2cc3ccccc3o2)SC1=S |
| 55.4 µM | COc1cccc(C2C(C(=O)Nc3ccccc3)=C(C)N=c3sc(=Cc4ccc(OCC(=O)O)cc4)c(=O)n32)c1 (stereo not drawn) |

| IC50 | SMILES |
| --- | --- |
| 49.5 µM | O=C(O)c1ccc(C[n+]2c(-c3ccccc3)csc2Nc2ccccc2)cc1 |
| > 100 µM (inactive) | O=C(O)CCC(C(=O)O)N1C(=O)/C(=C\c2ccco2)SC1=S (stereo not drawn) |
| 3.43 µM | CCc1ccc(-c2ccc(/C=C3\SC(=S)N(CCCC(=O)O)C3=O)o2)cc1 |
| 37 µM | O=C(O)CCCN1C(=O)/C(=C\c2ccc(-c3ccc(F)cc3)o2)SC1=S |
| 13.4 µM | COc1ccc(CCn2c(O)cc3nn(-c4nc5ccccc5s4)c(=O)c-3c2C)cc1 |
| 2.88 µM | O=C(O)CCCN1C(=O)/C(=C\c2ccc(-c3ccc(Cl)cc3)o2)SC1=S |
| 38.1 µM | CCOC(=O)C1=C(C)N=c2s/c(=C\c3ccc(OCC(=O)O)cc3)c(=O)n2C1c1ccc(Cl)cc1 (stereo not drawn) |
| 3.89 µM | Cc1c2c(=O)n(-c3nc4ccccc4s3)nc-2cc(O)n1Cc1ccc(F)cc1 |
| 38.9 µM | CS(=O)(=O)C1=NSC2=NC(=O)/C(=C\c3cccn3-c3cccc(F)c3)C(=N)N21 |
| > 100 µM (inactive) | CCOC(=O)C1=C(C)N=c2sc(=Cc3ccc(OCC(=O)O)cc3)c(=O)n2C1c1cc(OC)c(OC)c(OC)c1 (stereo not drawn) |
| 32.1 µM | COc1ccc(-n2cccc2/C=C2/C(=N)N3C(=NC2=O)SN=C3S(C)(=O)=O)cc1Cl |
| 2.87 µM | COc1ccccc1NS(=O)(=O)c1ccc2c(c1)C1C=CCC1C(c1ccc(C(=O)O)cc1)N2 (stereo not drawn) |
| 4.1 µM | COc1ccc(Cn2c(O)cc3nn(-c4nc5ccccc5s4)c(=O)c-3c2C)cc1 |
| 27.4 µM | O=C(O)CCCN1C(=O)/C(=C/c2ccc(-c3ccc(Cl)c(Cl)c3)o2)SC1=S |
| 56.5 µM | COc1ccc(-c2ccc(/C=C3\SC(=S)N(CCCC(=O)O)C3=O)o2)cc1 |
| 37 µM | COc1cccc(-n2cccc2/C=C2/C(=N)N3C(=NC2=O)SN=C3S(C)(=O)=O)c1 |
| 36.1 µM | CCOC(=O)C1=C(C)N=c2sc(=Cc3ccc(OCC(=O)O)cc3)c(=O)n2C1c1ccc(F)cc1 (stereo not drawn) |
| 1.68 µM | O=C(O)c1ccc(C2Nc3ccc(S(=O)(=O)Nc4cc(Cl)ccc4Cl)cc3C3C=CCC32)cc1 (stereo not drawn) |
| 2.27 µM | Cc1c2c(=O)n(-c3nc4ccccc4s3)nc-2cc(O)n1Cc1cccs1 |
| 15 µM | O=C(O)c1ccc(C[n+]2c(-c3ccc([N+](=O)[O-])cc3)csc2Nc2ccccc2)cc1 |
| 44.7 µM | CCOC(=O)C1=C(C)N=c2sc(=Cc3ccc(OCC(=O)O)cc3)c(=O)n2C1c1ccc(OC)cc1OC (stereo not drawn) |
| 45.1 µM | CCOC(=O)C1=C(C)N=c2sc(=Cc3ccc(OCC(=O)O)cc3)c(=O)n2C1c1ccccc1OC (stereo not drawn) |
| 52.1 µM | CS(=O)(=O)C1=NSC2=NC(=O)/C(=C\c3cccn3-c3cccc(Cl)c3)C(=N)N21 |
| > 100 µM (inactive) | CC1=C(C(=O)OC(C)C)C(c2ccc(Cl)cc2)n2c(s/c(=C\c3ccc(OCC(=O)O)cc3)c2=O)=N1 (stereo not drawn) |
| 0.56 µM | Cc1c2c(=O)n(-c3nc4ccccc4s3)nc-2cc(O)n1C1CC1 |
| 6.6 µM | CCOC(=O)C1=C(c2ccccc2)N=c2s/c(=C\c3ccc(OCC(=O)O)cc3)c(=O)n2C1c1cccc(OC)c1 (stereo not drawn) |

Source: PubChem BioAssay AID504352 (Southern Research Specialized Biocontainment Screening …, 2011)
